Tests used:
SERT [1] = target: T1, SERT (Rattus norvegicus, UniProt P31652); test: biochemical; format: binding
T1 construct: [3H]-paroxetine, rat cerebral cortex; from tissue; host or cells: rat cerebral cortex (membranes / crude synaptosomes)

adrenergic α1 receptor = test: Adrenergic α1 receptor binding assay ([3H]prazosin); conditions: rat cerebral cortex, means ± SEM of three experiments, read-out: Receptor Affinity Ki ± SEM α1
hERG potassium channel = target: T2, hERG potassium channel (Homo sapiens, UniProt Q12809); test: hERG whole-cell patch clamp in HEK 293 cells; format: cell-based
T2 construct: expressed in transfected cells; host or cells: HEK 293
T2 sequence (Q12809 whole entry): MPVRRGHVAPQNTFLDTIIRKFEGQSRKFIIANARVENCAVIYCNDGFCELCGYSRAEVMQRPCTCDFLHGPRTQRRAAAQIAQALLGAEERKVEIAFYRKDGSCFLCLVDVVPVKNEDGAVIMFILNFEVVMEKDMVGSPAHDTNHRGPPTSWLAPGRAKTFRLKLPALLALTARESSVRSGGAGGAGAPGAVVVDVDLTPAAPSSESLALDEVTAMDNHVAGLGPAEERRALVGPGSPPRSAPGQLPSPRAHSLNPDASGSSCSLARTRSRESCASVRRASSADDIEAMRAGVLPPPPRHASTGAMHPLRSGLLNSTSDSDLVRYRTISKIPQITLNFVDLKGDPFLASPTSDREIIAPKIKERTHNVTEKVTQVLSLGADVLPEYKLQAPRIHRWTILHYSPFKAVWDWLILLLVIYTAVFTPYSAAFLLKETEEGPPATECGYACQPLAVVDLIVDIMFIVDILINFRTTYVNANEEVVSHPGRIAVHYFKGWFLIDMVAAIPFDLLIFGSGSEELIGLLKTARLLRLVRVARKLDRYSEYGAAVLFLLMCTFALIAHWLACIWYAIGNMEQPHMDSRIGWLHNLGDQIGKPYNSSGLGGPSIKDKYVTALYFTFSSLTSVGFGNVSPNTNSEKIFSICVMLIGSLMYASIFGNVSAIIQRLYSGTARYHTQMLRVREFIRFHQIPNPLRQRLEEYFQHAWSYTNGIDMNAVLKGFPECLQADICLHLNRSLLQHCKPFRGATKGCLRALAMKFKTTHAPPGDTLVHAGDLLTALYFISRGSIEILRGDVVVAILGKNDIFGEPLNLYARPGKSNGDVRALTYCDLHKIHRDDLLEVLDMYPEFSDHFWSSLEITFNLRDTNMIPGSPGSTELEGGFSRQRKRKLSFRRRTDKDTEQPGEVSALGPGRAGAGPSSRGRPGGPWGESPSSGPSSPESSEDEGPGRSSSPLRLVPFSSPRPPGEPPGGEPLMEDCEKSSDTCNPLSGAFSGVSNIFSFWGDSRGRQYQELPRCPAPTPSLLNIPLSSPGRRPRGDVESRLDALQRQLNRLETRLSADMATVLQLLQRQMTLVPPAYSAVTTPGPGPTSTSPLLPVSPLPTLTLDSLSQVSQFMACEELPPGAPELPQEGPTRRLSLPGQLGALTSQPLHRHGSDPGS

SERT [2] = target: T1, SERT; test: Monoamine uptake transporter assay, [3H]5-HT uptake by SERT; format: biochemical
recombinant hH3R = recombinant hH3R (Homo sapiens, UniProt Q9Y5N1); test: H3 receptor intrinsic activity assay ([35S]GTPγS binding); format: biochemical
Sequence of recombinant hH3R (Q9Y5N1 whole entry): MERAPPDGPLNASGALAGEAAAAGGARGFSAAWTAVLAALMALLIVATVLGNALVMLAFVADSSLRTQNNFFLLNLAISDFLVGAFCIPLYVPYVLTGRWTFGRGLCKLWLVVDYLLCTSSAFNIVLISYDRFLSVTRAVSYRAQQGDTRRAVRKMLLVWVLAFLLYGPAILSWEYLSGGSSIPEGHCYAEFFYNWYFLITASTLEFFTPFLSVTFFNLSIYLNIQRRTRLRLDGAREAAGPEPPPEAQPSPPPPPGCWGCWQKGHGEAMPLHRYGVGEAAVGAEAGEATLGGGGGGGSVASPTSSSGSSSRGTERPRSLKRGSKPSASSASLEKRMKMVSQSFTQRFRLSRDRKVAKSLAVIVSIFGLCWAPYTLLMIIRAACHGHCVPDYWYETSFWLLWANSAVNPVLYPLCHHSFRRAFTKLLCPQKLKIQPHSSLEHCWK

mice [3] = test: Tail suspension test (TST); format: in vivo, mouse; conditions: oral, immobility duration
mice [4] = test: Locomotor activity test; format: in vivo, mouse; conditions: oral 5, 10, 20, 40, and 80 mg/kg, 15 min period
[5] = Pharmacokinetic study in rats; format: in vivo; conditions: rat, plasma
Method: 7. Pharmacokinetics Study
The HPLC conditions were as follows: Shimadzu LC30AD spectrometer ; column, SHIMADZU C18 (2.1 mm×50 mm, 2 μm); mobile phase A: 0.1% FA-Acetonitrile; mobile phase B: 0.1% FA-Deionized water; ﬂow rate, 0.4 mL/min; column temperature: 25 °C; UV detection was performed at 210 nm. The Mass conditions were as follows: ESI (positive), Ion spray voltage: 5500V, Curtain gass: 30, Temperature: 550°C, Ion Source Gas1: 55, Collision Gas: 7. For routine compound 11b screening, rats (n = 6/group) were dosed via the lateral tail vein at the indicated dose for iv administration (2 mg/kg, NS) or via oral gavage (20 mg/kg, Deionized water). At 0, 0.08, 0.25, 0.5,1、2、4、7、10 and 24h after administration, serial blood samples were collected from the lateral tail vein into heparinized collection tubes (approximately 0.25 mL). The plasma was separated by centrifugation, and the sample was prepared for LC/MS analysis by protein precipitation with acetonitrile. The plasma samples were analyzed for drug and internal standard via the LCMS/MS protocol.

Dopamine transporter = Dopamine transporter (Rattus norvegicus, UniProt P23977); test: Dopamine transporter binding ([3H]-WIN35,428); conditions: rat striatum; read-out: Ki DAT
Dopamine D1 receptor = Dopamine D1 receptor (Rattus norvegicus, UniProt P18901); test: Dopamine D1 receptor binding ([3H]-SCH23390); conditions: rat striatum
Sequence of Dopamine D1 receptor (P18901 whole entry): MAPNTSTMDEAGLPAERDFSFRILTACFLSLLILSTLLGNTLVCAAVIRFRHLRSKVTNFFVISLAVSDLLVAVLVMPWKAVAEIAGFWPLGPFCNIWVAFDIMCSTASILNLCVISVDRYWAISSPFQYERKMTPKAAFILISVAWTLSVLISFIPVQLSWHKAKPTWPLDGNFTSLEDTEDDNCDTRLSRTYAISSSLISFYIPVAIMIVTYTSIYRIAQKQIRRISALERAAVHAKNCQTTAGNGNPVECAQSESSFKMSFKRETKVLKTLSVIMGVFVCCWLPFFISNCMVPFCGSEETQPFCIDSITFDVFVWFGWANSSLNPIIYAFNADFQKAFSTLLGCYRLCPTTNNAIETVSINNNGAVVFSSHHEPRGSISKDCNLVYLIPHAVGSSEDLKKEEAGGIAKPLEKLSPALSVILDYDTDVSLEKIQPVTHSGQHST

Dopamine D2 receptor = Dopamine D2 receptor (Rattus norvegicus, UniProt P61169); test: Dopamine D2 receptor binding ([3H]spiperone); conditions: rat striatum
Dopamine D3 receptor = target: T3, Dopamine D3 receptor (Rattus norvegicus, UniProt P19020); test: Dopamine D3 receptor binding ([3H]7-OH-DPAT); conditions: rat olfactory tubercle
T3 construct: A rat olfactory tubercle was homogenized in 20 volumes of ice; from tissue; host or cells: rat olfactory tubercle membranes
T3 sequence (P19020 whole entry): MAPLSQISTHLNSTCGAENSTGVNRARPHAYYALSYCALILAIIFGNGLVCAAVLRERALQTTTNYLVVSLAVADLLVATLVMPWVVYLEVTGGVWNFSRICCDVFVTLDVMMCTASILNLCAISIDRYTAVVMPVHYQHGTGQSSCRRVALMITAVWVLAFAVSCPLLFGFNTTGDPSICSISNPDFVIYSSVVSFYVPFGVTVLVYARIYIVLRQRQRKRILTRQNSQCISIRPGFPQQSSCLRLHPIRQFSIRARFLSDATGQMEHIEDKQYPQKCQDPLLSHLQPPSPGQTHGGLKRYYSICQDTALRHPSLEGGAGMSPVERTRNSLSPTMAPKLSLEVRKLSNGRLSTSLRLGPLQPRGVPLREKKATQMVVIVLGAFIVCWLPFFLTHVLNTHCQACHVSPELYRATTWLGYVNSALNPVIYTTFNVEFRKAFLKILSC

Adrenergic α2 receptor = Adrenergic α2 receptor binding ([3H]-rauwolscine); conditions: rat cerebral cortex
M2 muscarinic receptor = target: T4, M2 muscarinic receptor (Homo sapiens, UniProt P08172); test: Muscarinic M2 receptor binding (lymphocyte suspension); conditions: lymphocyte suspension and sections
T4 construct: blood lymphocytes were used at a concentration of 1 × 10⁶ cells; endogenous in cells; host or cells: peripheral blood lymphocytes
T4 sequence (P08172 whole entry): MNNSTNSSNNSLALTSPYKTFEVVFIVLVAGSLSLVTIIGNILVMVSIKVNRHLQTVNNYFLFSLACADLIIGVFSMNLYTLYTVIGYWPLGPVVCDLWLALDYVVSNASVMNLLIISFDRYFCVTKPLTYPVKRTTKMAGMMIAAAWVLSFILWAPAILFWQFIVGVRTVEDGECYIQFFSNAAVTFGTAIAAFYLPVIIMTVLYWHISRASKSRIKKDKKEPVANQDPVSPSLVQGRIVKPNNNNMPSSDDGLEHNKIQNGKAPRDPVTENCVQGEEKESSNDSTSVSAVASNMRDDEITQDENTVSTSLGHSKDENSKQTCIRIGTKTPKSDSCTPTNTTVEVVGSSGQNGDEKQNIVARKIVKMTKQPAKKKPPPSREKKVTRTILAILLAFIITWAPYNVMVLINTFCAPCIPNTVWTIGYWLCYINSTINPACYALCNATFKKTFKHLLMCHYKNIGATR

[6] = target: T5, M3 muscarinic cholinergic receptor (Homo sapiens, UniProt P20309); test: Muscarinic M3 receptor binding (lymphocyte suspension); conditions: lymphocyte suspension and sections
T5 construct: blood lymphocytes were used at a concentration of 1 × 10⁶ cells; endogenous in cells; host or cells: peripheral blood lymphocytes
T5 sequence (P20309 whole entry): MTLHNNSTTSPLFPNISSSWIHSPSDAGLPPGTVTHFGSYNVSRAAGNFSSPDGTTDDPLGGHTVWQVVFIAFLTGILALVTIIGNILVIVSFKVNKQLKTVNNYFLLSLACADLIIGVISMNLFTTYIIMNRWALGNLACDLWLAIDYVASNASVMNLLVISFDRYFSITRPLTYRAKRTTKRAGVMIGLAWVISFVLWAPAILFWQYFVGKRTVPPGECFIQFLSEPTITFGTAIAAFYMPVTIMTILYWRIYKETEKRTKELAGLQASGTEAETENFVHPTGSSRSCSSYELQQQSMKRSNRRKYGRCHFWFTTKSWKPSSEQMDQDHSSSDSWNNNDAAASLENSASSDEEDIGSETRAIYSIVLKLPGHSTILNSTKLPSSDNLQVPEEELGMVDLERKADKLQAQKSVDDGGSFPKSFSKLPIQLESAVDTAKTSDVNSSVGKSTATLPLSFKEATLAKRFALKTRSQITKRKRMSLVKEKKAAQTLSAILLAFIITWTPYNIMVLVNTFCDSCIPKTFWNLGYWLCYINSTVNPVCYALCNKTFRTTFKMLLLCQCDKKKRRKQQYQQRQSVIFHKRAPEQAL
Method: Antagonist potency was determined according to literature, by measuring inhibition of RAMH-induced [35S]GTPγS binding in recombinant hH3R membranes as previously. The […]
Inverse agonist potency was conducted by measuring inhibition of basal [35S]GTPγS binding in recombinant hH3 Rmembranes. Test compound or vehicle was added to the wells, followed by [35S]GTPγS to a final concentration of 0.2 nM. Nonspecific binding was determined in the presence of 10 μM unlabeled GTPγS. The control agonist signal was determined in wells containing vehicle in place of the test compound, and the basal signal was determined in wells containing vehicle in place of both diluted compound and the RAMH […]
3. Selectivity of Compound 11b for Additional Receptors […]
transporter, 3[H]-WIN35,428, rat striatum; (2) Dopamine D1 receptor, 3[H]-SCH23390, rat striatum; (3) Dopamine D2 receptor, [3H]spiperone, rat striatum; (4) Dopamine D3 receptor, [3H] 7-OH-DPAT, rat olfactory tubercle; (5) Serotonin 5-HT2A receptor, [3H]Ketanserin, rat brain cortex;
(6) Serotonin 5-HT2C receptor, [3H]mesulergine, rat brain cortex; (7) Adrenergic α2 receptor, [3H]- rauwolscine, rat cerebral cortex; (8) Histamine H2 receptor, [3H]tiotidine, Sf9 cells and […]

σ2 receptor = target: T6, σ2 receptor (Cavia porcellus, UniProt H0V073); test: σ2 receptor binding ([3H]-DTG); conditions: guinea pig brain membrane
T6 construct: from tissue; host or cells: guinea pig brain membranes
T6 sequence (H0V073 1-176): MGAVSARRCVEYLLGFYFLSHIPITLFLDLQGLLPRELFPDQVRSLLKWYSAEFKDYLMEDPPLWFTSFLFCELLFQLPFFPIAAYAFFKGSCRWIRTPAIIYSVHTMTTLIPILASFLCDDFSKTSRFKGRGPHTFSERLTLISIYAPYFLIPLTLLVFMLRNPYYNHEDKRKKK

NET = NET (Rattus norvegicus, UniProt Q63380); test: biochemical; conditions: Receptor Affinity Ki ± SEM NET, rat hippocampal membrane, [3H]nisoxetine; means ± SEM of three experiments
Sequence of NET (Q63380 1-617): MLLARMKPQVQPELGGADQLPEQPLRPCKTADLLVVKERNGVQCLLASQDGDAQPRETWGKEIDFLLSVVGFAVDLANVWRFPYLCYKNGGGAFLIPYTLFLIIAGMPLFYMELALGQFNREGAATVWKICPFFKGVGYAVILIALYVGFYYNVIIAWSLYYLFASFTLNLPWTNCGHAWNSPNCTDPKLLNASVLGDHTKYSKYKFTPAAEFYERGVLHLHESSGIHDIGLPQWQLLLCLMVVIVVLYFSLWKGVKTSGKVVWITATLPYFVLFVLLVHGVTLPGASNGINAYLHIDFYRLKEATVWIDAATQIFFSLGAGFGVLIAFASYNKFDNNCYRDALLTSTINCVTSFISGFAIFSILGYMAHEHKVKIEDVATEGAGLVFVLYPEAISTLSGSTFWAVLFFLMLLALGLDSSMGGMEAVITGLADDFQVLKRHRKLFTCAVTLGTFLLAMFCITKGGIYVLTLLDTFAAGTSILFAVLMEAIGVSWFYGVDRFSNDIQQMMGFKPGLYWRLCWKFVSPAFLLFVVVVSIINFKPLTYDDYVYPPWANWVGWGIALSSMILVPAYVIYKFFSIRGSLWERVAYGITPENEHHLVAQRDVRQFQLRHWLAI

T1 sequence (P31652 whole entry): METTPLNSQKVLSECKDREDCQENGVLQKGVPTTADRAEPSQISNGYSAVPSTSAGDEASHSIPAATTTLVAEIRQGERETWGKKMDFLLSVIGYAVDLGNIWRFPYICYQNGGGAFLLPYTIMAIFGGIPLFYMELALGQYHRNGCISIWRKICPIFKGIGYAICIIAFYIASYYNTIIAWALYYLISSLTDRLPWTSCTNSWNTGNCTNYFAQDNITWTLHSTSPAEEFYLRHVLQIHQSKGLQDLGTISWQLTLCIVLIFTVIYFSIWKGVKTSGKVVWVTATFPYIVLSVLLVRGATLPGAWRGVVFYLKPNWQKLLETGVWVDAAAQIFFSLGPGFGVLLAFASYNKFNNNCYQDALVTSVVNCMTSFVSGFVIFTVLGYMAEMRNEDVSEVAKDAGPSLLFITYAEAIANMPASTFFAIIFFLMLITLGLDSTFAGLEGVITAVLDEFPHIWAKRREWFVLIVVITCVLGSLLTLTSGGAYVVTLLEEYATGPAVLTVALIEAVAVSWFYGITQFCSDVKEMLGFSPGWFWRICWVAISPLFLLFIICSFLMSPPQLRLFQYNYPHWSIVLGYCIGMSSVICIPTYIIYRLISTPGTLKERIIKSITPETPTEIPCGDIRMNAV

CN(C)CCC(Oc1cccc2c1OCO2)c1ccc(OCCCN2CCCCC2)cc1.O=C(O)C(=O)O (stereo not drawn) [Compound 11b, 3-(benzo[d][1,3]dioxol-4-yloxy)-N,N-dimethyl-3-(4-(3-(piperidin-1-yl)propoxy)phenyl)propan-1-amine oxalate]
Ki (SERT [1]; rat cerebral cortex, [3H]-paroxetine, means ± SEM of three experiments, read-out: Receptor Affinity Ki ± SEM SERT): 7.8 ± 0.9 nM
potency ratio among SERT, NET, and H3 (SERT [1]; ratio of binding Ki values for SERT, NET, H3): < 10 fold
Ki (adrenergic α1 receptor): 1170 ± 126 nM
IC50 (hERG potassium channel): 1000 ± 112 nM
Activation (10 μM, %) SERT (SERT [2]; 10 μM, n = 3): 4.4 ± 0.3%
inhibition at 10 µM (SERT [2]; 10 μM, n = 3): > 90%
IC50 (SERT [2]; [3H]5-HT uptake, antagonist assay): 20.1 nM
inhibition at 10 µM (recombinant hH3R; 10 μM, n = 3): > 90%
IC50 (recombinant hH3R; antagonist assay, RAMH-induced [35S]GTPγS binding): 0.72 nM
minimal effective dose (MED) in TST (mice [3]): 10 mg/kg
total travel distance (locomotor activity) (mice [4]): did not significantly alter the total travel distance
AUC(0-inf) ([5]; 2 mg/kg iv): 265 ng·h/mL
AUC(0-t) ([5]; 2 mg/kg iv): 261 ng·h/mL
Cmax ([5]; 2 mg/kg iv): 224 ng/mL
MRT last ([5]; 2 mg/kg iv): 1.2 h
Tmax ([5]; 2 mg/kg iv): 0.08 h
half-life ([5]; 2 mg/kg iv): 1.3 h
AUC(0-inf) ([5]; 20 mg/kg po): 944 ng·h/mL
AUC(0-t) ([5]; 20 mg/kg po): 942 ng·h/mL
Cmax ([5]; 20 mg/kg po): 134 ng/mL
MRT last ([5]; 20 mg/kg po): 5.4 h
Tmax ([5]; 20 mg/kg po): 2 h
half-life ([5]; 20 mg/kg po): 2.6 h
bioavailability ([5]; 20 mg/kg po vs 2 mg/kg iv, read-out: F (bioavailability)): 35.6%
Ki (Dopamine transporter): > 1000 nM
Ki (Dopamine D1 receptor): > 1000 nM
Ki (Dopamine D2 receptor): > 1000 nM
Ki (Dopamine D3 receptor): > 1000 nM
Ki (Adrenergic α2 receptor): > 1000 nM
Ki (M2 muscarinic receptor): > 1000 nM
Ki [6]: > 1000 nM
Ki (σ2 receptor): > 1000 nM
Ki (NET): 10.5 ± 1.2 nM

Source: paper PMC11870037 (Molecules, 2024)
